Test results from paper PMC4039129, “Specificity and Promiscuity at the Branch Point in Gentamicin Biosynthesis” (Chemistry & Biology, 2014).

Tests used:
GenQ (VM_GenQ) = molecular target: T1, GenQ (VM_GenQ) (Micromonospora echinospora, UniProt Q70KE0); test: LC-ESI-MS, […]'-dehydrogenation; format: biochemical; settings: 200 uM substrate, 16 uM enzyme, Tris-HCl pH 8.0, 30 °C overnight
T1 construct: gene gacJ; full length with 38 extra N-terminal residues absent in original annotation; N-His6 tag, pET28a(+), E. coli BL21(DE3); contains FAD
T1 sequence (Q70KE0 entry or part of it): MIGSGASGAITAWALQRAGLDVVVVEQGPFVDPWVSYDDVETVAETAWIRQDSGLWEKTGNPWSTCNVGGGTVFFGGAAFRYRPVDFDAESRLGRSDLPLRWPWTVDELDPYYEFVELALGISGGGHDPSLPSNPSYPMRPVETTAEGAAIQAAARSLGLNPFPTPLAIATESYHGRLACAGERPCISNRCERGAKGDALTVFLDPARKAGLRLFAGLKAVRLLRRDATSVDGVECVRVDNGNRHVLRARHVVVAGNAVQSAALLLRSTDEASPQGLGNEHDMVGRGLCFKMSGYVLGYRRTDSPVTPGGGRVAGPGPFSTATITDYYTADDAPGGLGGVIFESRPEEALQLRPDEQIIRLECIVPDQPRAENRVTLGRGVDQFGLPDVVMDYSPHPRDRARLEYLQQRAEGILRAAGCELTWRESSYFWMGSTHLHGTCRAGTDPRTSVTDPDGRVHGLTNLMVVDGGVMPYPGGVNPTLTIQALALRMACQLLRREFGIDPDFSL

GenB1 [1] = molecular target: T2, GenB1 (Micromonospora echinospora, UniProt Q70KD9); test: LC-ESI-MS, GenQ-coupled transamination; format: biochemical; settings: amino donor 2 mM; 6'-DOG made in situ from 200 uM G418 by 16 uM GenQ; 20 uM GenB1; Tris-HCl pH 8.0, 30 °C
T2 construct: gene gacK; N-His6-tagged, pET28a(+), E. coli BL21(DE3); contains PLP
T2 sequence (Q70KD9 entry or part of it): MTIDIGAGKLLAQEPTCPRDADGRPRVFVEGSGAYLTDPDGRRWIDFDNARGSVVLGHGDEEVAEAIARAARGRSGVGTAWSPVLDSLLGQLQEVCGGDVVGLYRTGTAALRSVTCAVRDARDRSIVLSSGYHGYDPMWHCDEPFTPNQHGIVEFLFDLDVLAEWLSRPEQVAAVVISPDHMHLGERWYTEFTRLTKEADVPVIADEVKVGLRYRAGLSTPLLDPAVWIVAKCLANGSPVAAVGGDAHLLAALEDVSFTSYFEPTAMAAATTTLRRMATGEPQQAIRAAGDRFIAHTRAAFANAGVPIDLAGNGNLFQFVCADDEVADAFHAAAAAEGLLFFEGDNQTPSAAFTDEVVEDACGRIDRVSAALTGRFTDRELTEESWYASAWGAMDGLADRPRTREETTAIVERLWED

GenB2 [2] = molecular target: T3, GenB2 (Micromonospora echinospora, UniProt Q70KE6); test: LC-ESI-MS, […]'-epimerization; format: biochemical; settings: 200 uM substrate, 20 uM enzyme, Tris-HCl pH 8.0, 30 °C overnight; reversible
T3 construct: gene gacE; N-His6-tagged, pET28a(+), E. coli BL21(DE3); contains PLP
T3 sequence (Q70KE6 entry or part of it): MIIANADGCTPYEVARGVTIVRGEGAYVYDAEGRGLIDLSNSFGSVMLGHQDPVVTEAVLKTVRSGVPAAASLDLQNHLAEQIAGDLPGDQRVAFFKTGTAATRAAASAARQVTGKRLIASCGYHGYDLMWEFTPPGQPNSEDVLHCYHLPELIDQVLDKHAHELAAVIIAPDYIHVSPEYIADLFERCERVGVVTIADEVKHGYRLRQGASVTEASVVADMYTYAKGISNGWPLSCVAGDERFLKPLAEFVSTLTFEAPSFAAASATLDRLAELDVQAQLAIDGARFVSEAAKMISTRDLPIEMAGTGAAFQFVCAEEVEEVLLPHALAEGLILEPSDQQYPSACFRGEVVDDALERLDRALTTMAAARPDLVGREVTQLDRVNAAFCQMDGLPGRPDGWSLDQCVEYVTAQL

GenB4 = molecular target: T4, GenB4 (Micromonospora echinospora, UniProt Q6QVT7); test: UV-visible absorption spectrum; format: binding; settings: co-purified cofactor
T4 construct: gene gntH; N-His6-tagged, pET28a(+), E. coli BL21(DE3); contains PLP
T4 sequence (Q6QVT7 entry or part of it): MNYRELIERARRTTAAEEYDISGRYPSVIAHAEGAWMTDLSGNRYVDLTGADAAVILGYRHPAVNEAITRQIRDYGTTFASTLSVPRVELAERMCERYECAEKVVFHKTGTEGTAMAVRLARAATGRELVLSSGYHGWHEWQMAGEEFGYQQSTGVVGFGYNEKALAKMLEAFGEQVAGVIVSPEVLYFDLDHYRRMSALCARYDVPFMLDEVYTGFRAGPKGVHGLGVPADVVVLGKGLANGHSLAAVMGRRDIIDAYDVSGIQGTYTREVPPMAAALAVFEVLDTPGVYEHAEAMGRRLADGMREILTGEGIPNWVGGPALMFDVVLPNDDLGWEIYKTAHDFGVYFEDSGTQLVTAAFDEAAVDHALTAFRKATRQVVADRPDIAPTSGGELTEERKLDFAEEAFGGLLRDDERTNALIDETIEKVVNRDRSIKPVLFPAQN

GenB3 = molecular target: T5, GenB3 (Micromonospora echinospora, UniProt Q2MG50); test: UV-visible absorption spectrum; format: binding; settings: co-purified cofactor
T5 construct: N-His6-tagged, pET28a(+), E. coli BL21(DE3); contains PLP
T5 sequence (Q2MG50 entry or part of it): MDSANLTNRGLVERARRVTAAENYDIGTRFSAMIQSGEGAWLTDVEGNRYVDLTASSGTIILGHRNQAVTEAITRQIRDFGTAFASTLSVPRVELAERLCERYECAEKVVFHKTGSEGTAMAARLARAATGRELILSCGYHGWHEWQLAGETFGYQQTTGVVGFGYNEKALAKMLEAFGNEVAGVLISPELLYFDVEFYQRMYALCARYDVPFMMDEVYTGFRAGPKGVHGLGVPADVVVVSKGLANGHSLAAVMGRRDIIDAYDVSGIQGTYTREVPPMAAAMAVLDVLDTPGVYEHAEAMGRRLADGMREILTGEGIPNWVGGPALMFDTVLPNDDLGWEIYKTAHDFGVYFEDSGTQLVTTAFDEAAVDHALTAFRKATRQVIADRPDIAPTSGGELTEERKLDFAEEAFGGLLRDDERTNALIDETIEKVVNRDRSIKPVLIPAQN

GenB2 [3] = molecular target: T3, GenB2; test: UV-visible absorption spectrum; format: binding; settings: co-purified cofactor
GenB1 [4] = molecular target: T2, GenB1; test: UV-visible absorption spectrum; format: binding; settings: co-purified cofactor

In the case of `CN[C@@H]1[C@@H](O)[C@@H](O[C@@H]2[C@@H](O)[C@H](O[C@H]3O[C@H](CO)[C@@H](O)[C@H](O)[C@H]3N)[C@@H](N)C[C@H]2N)OC[C@]1(C)O` (stereo in doubt) [gentamicin X2], the “LC-ESI-MS, 6'-dehydrogenation” value (GenQ (VM_GenQ)) is reported as “GenQ also showed activity with X2 as the substrate”.

For `CSCC[C@H](N)C(=O)O` [L-methionine], the “LC-ESI-MS, GenQ-coupled transamination” value (GenB1 [1]) was “conversion of G418 to JI-20B, with L-methionine as the most effective amino donor”.

In the case of `CN[C@@H]1[C@@H](O)[C@@H](O[C@@H]2[C@@H](O)[C@H](O[C@H]3O[C@H]([C@@H](C)N)CC[C@H]3N)[C@@H](N)C[C@H]2N)OC[C@]1(C)O` [gentamicin C2], the “LC-ESI-MS, 6'-epimerization” value (GenB2 [2]) is reported as “GenB2 did catalyze the epimerization of C2”.

With `CN[C@@H]1[C@@H](O)[C@@H](O[C@@H]2[C@@H](O)[C@H](O[C@H]3O[C@H]([C@H](C)N)CC[C@H]3N)[C@@H](N)C[C@H]2N)OC[C@]1(C)O` [gentamicin C2a] the “LC-ESI-MS, 6'-epimerization” value (GenB2 [2]) was “when C2a was used as the substrate the reverse reaction was also detected”.

`Cc1ncc(COP(=O)(O)O)c(C=O)c1O` [pyridoxal-5′-phosphate] was tested, and the UV-visible absorption spectrum (GenB4) was “UV-visible absorption spectra typical of aminotransferases containing bound pyridoxal-5′-phosphate cofactor”, the UV-visible absorption spectrum (GenB3) was “UV-visible absorption spectra typical of aminotransferases containing bound pyridoxal-5′-phosphate cofactor” and the UV-visible absorption spectrum (GenB2 [3]) was “UV-visible absorption spectra typical of aminotransferases containing bound pyridoxal-5′-phosphate cofactor”. The UV-visible absorption spectrum (GenB1 [4]) was “UV-visible absorption spectra typical of aminotransferases containing bound pyridoxal-5′-phosphate cofactor”.
